“And” between values parts separate entries of the source, which are not always exact repeats. Equal entries are not always repeated.
Key:
[1] = molar enthalpy of vaporization or sublimation; settings: 298.15 K; Crystal; Static calorimetry
[2] = Crystal, Calculated from knudsen effusion weight loss

O=[N+]([O-])c1ccccc1I [1-iodo-2-nitrobenzene]
Settings | molar enthalpy [kcal/mol]
[1] | 21.5

[2]
Settings | vapor or sublimation pressure
287.15 K | 8.2e-05 kPa and 8.5e-05 kPa
289.14 K | 0.000107 kPa and 0.000103 kPa
291.13 K | 0.000139 kPa and 0.000141 kPa and 0.000135 kPa
293.14 K | 0.000175 kPa and 0.000178 kPa and 0.000184 kPa
295.15 K | 0.000224 kPa and 0.000226 kPa and 0.00023 kPa
297.14 K | 0.000283 kPa and 0.000289 kPa and 0.000288 kPa
299.14 K | 0.000373 kPa and 0.000375 kPa and 0.000374 kPa
301.14 K | 0.000458 kPa and 0.000466 kPa and 0.000479 kPa
303.13 K | 0.000609 kPa and 0.000616 kPa
305.14 K | 0.000767 kPa and 0.000768 kPa and 0.000777 kPa
307.14 K | 0.000974 kPa and 0.000975 kPa and 0.000998 kPa

O=[N+]([O-])c1cccc(I)c1 [1-iodo-3-nitrobenzene]
Settings | molar enthalpy [kcal/mol]
[1] | 21.4

[2]
Settings | vapor or sublimation pressure
287.14 K | 0.000148 kPa and 0.000145 kPa
289.15 K | 0.000187 kPa and 0.000191 kPa
291.13 K | 0.000238 kPa
293.13 K | 0.000309 kPa and 0.000314 kPa
295.15 K | 0.000392 kPa and 0.0004 kPa
297.14 K | 0.000508 kPa and 0.000506 kPa
299.14 K | 0.000641 kPa and 0.000643 kPa
301.14 K | 0.000812 kPa
303.13 K | 0.001033 kPa and 0.001074 kPa

O=[N+]([O-])c1ccc(I)cc1 [1-iodo-4-nitrobenzene]
Settings | molar enthalpy [kcal/mol]
[1] | 23.5

[2]
Settings | vapor or sublimation pressure
311.18 K | 9.7e-05 kPa and 9.4e-05 kPa and 9.3e-05 kPa
313.17 K | 0.000121 kPa and 0.000114 kPa and 0.000118 kPa
315.11 K | 0.000151 kPa and 0.00015 kPa and 0.000152 kPa
317.18 K | 0.000179 kPa and 0.000193 kPa
319.13 K | 0.00023 kPa and 0.000226 kPa
321.1 K | 0.000282 kPa and 0.000277 kPa and 0.000283 kPa
323.18 K | 0.000355 kPa and 0.000354 kPa and 0.000359 kPa
325.18 K | 0.000451 kPa and 0.000436 kPa and 0.000455 kPa
327.12 K | 0.00055 kPa and 0.000546 kPa and 0.000552 kPa
329.18 K | 0.000672 kPa and 0.000673 kPa
331.18 K | 0.000856 kPa and 0.00083 kPa and 0.000857 kPa
333.11 K | 0.001045 kPa and 0.001036 kPa and 0.001018 kPa

Source: the NIST ThermoML archive (doi:10.1016/j.jct.2012.09.031)
